Structures can show the parent of a compound that is named as a salt.
Columns and labels:
[1] = test system: bacteria; assay: Minimum inhibitory concentration (MIC) assay, bacteria; assay type: cell-based
Experimental: (§1) The assays described below were used to measure the minimum inhibitory concentration (MIC) of a compound necessary to inhibit visible growth of the organism tested. These assays are adapted from NCCLS protocols M7-A4 and M27-A (NCCLS vol 17:9 and vol 17:2) as modified by Sandven, S., Clin. Micro. (1999) 37:12, p. 3856–3859. MIC values for Aspergillus species were determined using NCCLS protocol M38-P.
(§2) All compounds were dissolved in 100% DMSO to a stock concentration of 10 mM and used fresh stock compounds in powder form were kept frozen until needed and used freshly. When used for test purposes, compounds were diluted in the appropriate media depending on the organism being tested.
(§3) For yeast and aspergillus species, seven 1:2 serial dilutions of compound in appropriate media buffered with MOPS at pH 7.0 were prepared such that the final starting test compound concentrations were 44.4 μM for yeast and 50 μM aspergillus species. For bacteria, dilutions were made in growth media used for the particular bacteria being tested.
Five well-separated colonies from a 24 h Sabouraud Dextrose plate incubated at 35° C. were picked and resuspended into 2 mL of normal saline. The O.D.530 was read and the culture was adjusted to 0.5 McFarland units with normal saline. A 1:2000 dilution was made with RPMI 1640 media buffered with MOPS at pH 7.0 and 100 μL of this inoculum preparation was added to an equal volume of test compound-containing media. 25 μL of the redox indicator Alamar Blue (Biosource International) was added to each well and the plates were incubated for 48 h at 35° C. Wells having yeast growth changed color from blue to pink.
Inoculums are made in the same manner as yeast except all dilutions are made in normal saline, with a final dilution of 1:200 and an inoculum of 10 μL.

[2] = test system: Aspergillus species; assay: Minimum inhibitory concentration (MIC) assay, filamentous fungi; assay type: cell-based; conditions: antifungal activity, lowest concentration at which 75% inhibition of growth is observed after 48 h
Experimental: as §1, §2, §3
Inoculums are made by incubating Aspergillus species for 7 days at 35° C. on potato dextrose agar slants. Slants are then covered with 1.0 mL of 0.85% saline, one drop of Tween 20 is added and colonies are teased with a sterile transfer loop to create a suspension which is allowed to sit for 5 min so heavier particles can drop out. The upper suspension is separated and adjusted to an optical density of 0.09 to 0.11. The resulting suspension is diluted 1:50, which yields 2× the final inoculum needed. Micro dilution trays are prepared as with yeast and incubated for 48 h at 35° C. For our purposes the MIC is defined as the lowest compound concentration at which 75% inhibition of growth is observed after 48 h.

Row | SMILES | MIC [1] [µM] | MIC [2] [µM]
1 | N=C(N)NCC1CCC(CNC(=O)c2cc3cc(NC(=O)c4ccc5[nH]c(C(=O)NCC6CCC(CNC(=N)N)CC6)cc5c4)ccc3[nH]2)CC1 (centres unmarked) [Compound 18, 1H-Indole-2,5-dicarboxylic acid 2-[(4-guanidinomethyl-cyclohexylmethyl)-amide] 5-({2-[(4-guanidinomethyl-cyclohexylmethyl)-carbamoyl}-1H-indol-5-yl}-amide)] | ≤ 45.5 | ≤ 50
2 | CNC(=N)NCCNC(=O)c1ccc2[nH]c(C(=O)Nc3ccc4[nH]c(C(=O)NCCNC(=N)NC)cc4c3)cc2c1 [Compound 55] | ≤ 45.5 | ≤ 50
3 | C/N=C(/NCCNC(=O)c1ccc2[nH]c(C(=O)Nc3ccc4[nH]c(C(=O)NCCN/C(=N/C)SC)cc4c3)cc2c1)SC [Compound 90, 1H-Indole-2,5-dicarboxylic acid 5-{[2-(2,3-dimethylisothioureido)ethyl]amide} 2-({2-[2-(2,3-dimethylisothioureido)ethylcarbamoyl]-1H-indol-5-yl}amide)dihydrochloride] | ≤ 45.5 | 
4 | C/N=C(\NC)NCCCNC(=O)c1ccc2[nH]c(C(=O)Nc3ccc4cc(C(=O)NCCN/C(=N/C)NC)[nH]c4c3)cc2c1 [Compound 54, 1H-Indole-2,5-dicarboxylic acid 2-({2-[2-(N′,N″-dimethylguanidino)ethylcarbamoyl]-1H-indole-6-yl}amide) 5-{[3-(N′,N″-dimethylguanidino)propyl]amide}dihydrochloride] | ≤ 45.5 | ≤ 50
5 | O=C(NCCNC1=NCCN1)c1ccc2[nH]c(C(=O)Nc3ccc4cc(C(=O)NCCNC5=NCCN5)[nH]c4c3)cc2c1 [Compound 50, 1H-Indole-2,5-dicarboxylic acid 5-{[2-(4,5-dihydro-1H-imidazol-2-ylamino)-ethyl]amide} 2-({2-[2-(4,5-dihydro-1H-imidazol-2-ylamino)-ethylcarbamoyl]-1H-indol-6-yl}-amide)] | ≤ 45.5 | ≤ 50
6 | N=C(N)NCC1CCCC(CNC(=O)c2cc3cc(NC(=O)c4ccc5[nH]c(C(=O)NCC6CCCC(CNC(=N)N)C6)cc5c4)ccc3[nH]2)C1 (centres unmarked) [Compound 24, 1H-Indole-2,5-dicarboxylic acid 2-[(3-guanidinomethyl-cyclohexylmethyl)-amide] 5-({2-[(3-guanidinomethyl-cyclohexylmethyl)-carbamoyl}-1H-indol-5-yl}-amide)] | ≤ 45.5 | ≤ 50
7 | CNC(=N)NCCNC(=O)c1cc2cc(NC(=O)c3cc4cc(NC(=O)CNC(=N)NC)ccc4[nH]3)ccc2[nH]1 [Compound 110] | ≤ 45.5 | ≤ 50
8 | N=C(N)NCCNC(=O)c1ccc2[nH]c(C(=O)Nc3ccc4[nH]c(C(=O)NCCNC(=N)N)cc4c3)cc2c1 [Compound 82, 1H-Indole-2,5-dicarboxylic acid 5-[(2-guanidino-ethyl)-amide] 2-{[2-(2-guanidino-ethylcarbamoyl)-1H-indol-5-yl]-amide}] | ≤ 45.5 | ≤ 50
9 | N=C(N)NCCNC(=O)c1ccc2[nH]c(C(=O)Nc3ccc4cc(C(=O)NCCNC(=N)N)sc4c3)cc2c1 [Compound 178, 1H-Indole-2,5-dicarboxylic acid 5-[(2-guanidino-ethyl)-amide] 2-{[2-(2-guanidino-ethylcarbamoyl)-benzo[b]thiophen-6-yl]-amide}] |  | ≤ 50
10 | N#C/N=C(/N)NCCNC(=O)c1cc2ccc(NC(=O)c3cc4cc(C(=O)NCCNC(=N)N)ccc4[nH]3)cc2[nH]1 [Compound 184, 1H-Indole-2,5-dicarboxylic acid 5-{[2-(guanidino)ethyl]amide} 2-({2-[2-(N′-cyanoguanidino)ethylcarbamoyl]-1H-indol-6-yl}amide)] |  | ≤ 50
11 | N=C(N)NCNC(=O)c1ccc2[nH]c(C(=O)Nc3ccc4cc(C(=O)NCNC(=N)N)[nH]c4c3)cc2c1 [Compound 173, 1H-Indole-2,5-dicarboxylic acid 5-guanidinomethyl-amide 2-{[2-(guanidinomethyl-carbamoyl)-1H-indol-6-yl]-amide}] |  | ≤ 50
12 | CC(C)Cn1cc(NC(=O)c2ccc3[nH]c(C(=O)NCCNC(=N)N)cc3c2)cc1C(=O)NCCNC(=N)N [Compound 29, 1H-indole-2,5-dicarboxylic acid 2-[(2-guanidino-ethyl)-amide] 5-{[5-(2-guanidino-ethylcarbamoyl)-1-isobutyl-1H-pyrrol-3-yl]-amide}] | ≤ 45.5 | 
13 | CN(CCNC(=N)N)C(=O)c1ccc2[nH]c(C(=O)Nc3ccc4cc(C(=O)NCCNC(=N)N)[nH]c4c3)cc2c1 [Compound 176, 1H-Indole-2,5-dicarboxylic acid 2-{[2-(2-guanidino-ethylcarbamoyl)-1H-indol-6-yl]-amide} 5-[(2-guanidino-ethyl)-methyl-amide]] |  | ≤ 50
14 | C[n+]1ccccc1NCCNC(=O)c1ccc2[nH]c(C(=O)Nc3ccc4cc(C(=O)NCCNc5cccc[n+]5C)[nH]c4c3)cc2c1 [Compound 170, 1H-Indole-2,5-dicarboxylic acid 5-[(2-(1-methylpyridiniu-2-yl)amino-ethyl)-amide] 2-{[2-(2-(1-methylpyridiniu-2-yl)amino-ethylcarbamoyl)-1H-indol-6-yl]-amide}] |  | ≤ 50
15 | CNCCNC(=O)c1cc2ccc(NC(=O)c3cc4cc(C(=O)NCCNC(=N)N)ccc4[nH]3)cc2[nH]1 [Compound 182, 1H-Indole-2,5-dicarboxylic acid 5-[(2-guanidinoethyl)amide] 2-{[2-(2-methylaminoethylcarbamoyl)-1H-indol-6-yl]amide}] |  | ≤ 50
16 | N=C(N)NCCNC(=O)c1ccc(C(=O)Nc2ccc3[nH]c(C(=O)NCCNC(=N)N)cc3c2)cc1 [Compound 70, N-(2-Guanidino-ethyl)-N′-[2-(2-guanidino-ethylcarbamoyl)-1H-indol-5-yl]-terephthalamide] |  | ≤ 50
17 | N=C(N)NCCNC(=O)c1ccc2[nH]c(C(=O)Nc3ccc4[nH]c(C(=O)NCCNC(=N)N)nc4c3)cc2c1 [Compound 175, 1H-Indole-2,5-dicarboxylic acid 5-[(2-guanidino-ethyl)-amide] 2-{[2-(2-guanidino-ethylcarbamoyl)-1H-benzoimidazol-5-yl]-amide)] |  | ≤ 50
18 | N=C(N)NCCNC(=O)c1cc2cc(NC(=O)c3cc4cc(NC(=O)CNC(=N)N)ccc4o3)ccc2[nH]1 [Compound 135, 5-{[5-(2-guanidino-acetylamino)-benzofuran-2-carbonyl]-amino}-1H-indole-2-carboxylic acid (2-guanidino-ethyl)-amide] |  | ≤ 50
19 | N=C(N)NCCNC(=O)c1cc2ccc(NC(=O)c3cc4cc(C(=O)NCNC(=N)N)ccc4[nH]3)cc2[nH]1 [Compound 172, 1H-Indole-2,5-dicarboxylic acid 2-{[2-(2-guanidino-ethylcarbamoyl)-1H-indol-6-yl]-amide} 5-guanidinomethyl-amide] |  | ≤ 50
20 | CC(=N)NCCNC(=O)c1cc2cc(NC(=O)c3ccc4[nH]c(C(=O)NCCNC(C)=N)cc4c3)ccc2[nH]1 [Compound 9] |  | ≤ 50
21 | N=C(N)NCCNC(=O)c1ccc2sc(C(=O)Nc3ccc4sc(C(=O)NCCNC(=N)N)cc4c3)cc2c1 [Compound 177, Benzo[b]thiophene-2,5-dicarboxylic acid 5-[(2-guanidino-ethyl)-amide]2-{[2-(2-guanidino-ethylcarbamoyl)-benzo[b]thiophen-5-yl]-amide}] |  | ≤ 50
22 | CC(C)(C)OC(=O)NCCNC(=O)c1cc2cc(NC(=O)c3cc4cc(N)ccc4[nH]3)ccc2[nH]1 [Compound 107, [2-({5-[(5-Amino-1H-indole-2-carbonyl)-amino]-1H-indole-2-carbonyl}-amino)-ethyl]-carbamic acid tert-butyl ester] | ≤ 45.5 | 
23 | CN(C)CCNC(=O)c1cc2ccc(NC(=O)c3cc4cc(C(=O)NCCNC(=N)N)ccc4[nH]3)cc2[nH]1 [Compound 183, 1H-Indole-2,5-dicarboxylic acid 2-{[2-(2-dimethylaminoethylcarbamoyl)-1H-indol-6-yl]amide} 5-[(2-guanidinoethyl)amide]] |  | ≤ 50
24 | N=C(N)NCCNC(=O)c1cc2cc(NC(=O)c3cc4cc(NC(=O)CNC(=N)N)ccc4[nH]3)ccc2[nH]1 [Compound 138, 5-{[5-(2-guanidino-acetylamino)-1H-indole-2-carbonyl]-amino}-1H-indole-2-carboxylic acid (2-guanidino-ethyl)-amide] |  | ≤ 50
25 | N=C(N)NCCC[C@H](N)C(=O)NCCCNC(=O)c1cc2ccc(NC(=O)c3cc4cc(C(=O)NCCNC(=O)[C@@H](N)CCCNC(=N)N)ccc4[nH]3)cc2[nH]1 [Compound 66, 1H-Indole-2,5-dicarboxylic acid 5-{[2-(2-amino-5-guanidino-pentanoylamino)-ethyl]-amide} 2-({2-[3-(2-amino-5-guanidino-pentanoylamino)-propylcarbamoyl]-1H-indol-6-yl}-amide)] | ≤ 45.5 | 
